Assay results: patent US20120208782A1, “Modulation of Growth of Bifidobacteria Using a Combination of Oligosaccharides Found in Human Milk” (Wyeth LLC, priority 2011, published 2012)

Experiments:
[1] = tested on: Bifidobacterium Infantis ATCC 15697; assay: Growth of Bifidobacterium infantis in RCM without glucose, with or without test ingredient (optical density at 595 nm, 30 hours); type: cell-based; settings: for growth in wells containing the test ingredient versus control medium: optical density 595 nm; for effect on the growth of Bifidobacterium infantis (summary statement): summary in the description
Experimental: (§1) Reinforced Clostridia Medium (RCM) was used for cultivating the bifidobacteria. RCM without glucose was used as a control medium. RCM is a well-known medium for cultivating and enumerating anaerobes, which was first formulated by Hirsch and Grinstead, J. Dairy Res., 21:101 (1954). The test ingredients were 2′-fucosyllactose, 6′-sialyllactose and 3′-sialyllactose dissolved in the control medium at the following concentrations: 1 mg/ml 2′-fucosyllactose; 1 mg/ml 6′-sialyllactose; and, 2 mg/ml 3′-sialyllactose. The bifidobacteria were separately grown overnight anaerobically in RCM, and were then measured and diluted to an optical density of 0.1 as measured by absorbance spectroscopy at 595 nm, and were then further diluted ten-fold to make a working stock. For each test, 50 μl of working stock was added to each well of a 96 well plate containing either 200 μl of control medium (48 wells) or 200 μl test ingredient solution (48 wells). The plate was grown anaerobically for 30 hours and optical density was read at abs 595 nm every 15 minutes. The values for like wells were averaged and plotted over time (FIGS. 1, 3, and 5-7), and the area under the curve (AUC) was calculated over the 30-hour period (FIGS. 2 and 4).

[2] = tested on: Bifidobacterium Breve ATCC 15700; assay: Growth of Bifidobacterium breve in RCM without glucose, with or without test ingredient (optical density at 595 nm, 30 hours); type: cell-based
Experimental: as §1

| SMILES | growth in wells containing the test ingredient versus control medium ([1]; 2 mg/ml 3′-sialyllactose, after 8 hours, FIG. 7) | effect on the growth of Bifidobacterium infantis (summary statement) [1] | growth in wells containing the test ingredient versus control medium ([2]; 2 mg/ml 3′-sialyllactose, after 6 hours, optical density 595 nm, FIG. 6) | effect on the growth of Bifidobacterium breve (summary statement) ([2]; summary in the description) | growth in wells containing the test ingredient versus control medium ([1]; 1 mg/ml 6′-sialyllactose, after 12 hours, FIG. 5) |
| --- | --- | --- | --- | --- | --- |
| CC(=O)N[C@H]1[C@H]([C@H](O)[C@H](O)CO)O[C@@](O[C@H]2[C@@H](O)[C@@H](CO)O[C@@H](O[C@H]3[C@H](O)[C@@H](O)C(O)O[C@@H]3CO)[C@@H]2O)(C(=O)O)C[C@@H]1O (stereo partly drawn) [3′-sialyllactose] | significantly greater | stimulates the growth | significantly greater | stimulates the growth | – |
| CC(=O)N[C@H]1[C@H]([C@H](O)[C@H](O)CO)O[C@@](OC[C@H]2O[C@@H](O[C@H]3[C@H](O)[C@@H](O)[C@H](O)O[C@@H]3CO)[C@H](O)[C@@H](O)[C@H]2O)(C(=O)O)C[C@@H]1O [6′-sialyllactose] | – | stimulates the growth | – | – | significantly greater |
